In one assay the test system is lambsquarters. Kind of assay: Test D pre-/postemergence herbicide test. The class given is in vivo, Chenopodium album. Particulars: for Plant response rating: Lambsquarters, scale 0 to 100; for Plant response rating, Lambsquarters: scale 0 to 100 (0 no effect, 100 complete control). The source says: (§1) Seeds of plant species selected from bluegrass (annual bluegrass, Poa annua), blackgrass (Alopecurus myosuroides), canarygrass (littleseed canarygrass, Phalaris minor), chickweed (common chickweed, Stellaria media), galium (catchweed bedstraw, Galium aparine), bromegrass, downy (downy bromegrass, Bromus tectorum), field poppy (Papaver rhoeas), field violet (Viola arvensis), foxtail, green (green foxtail, Setaria viridis), deadnettle (henbit deadnettle, Lamium amplexicaule), ryegrass, Italian (Italian ryegrass, Lolium multiflorum), kochia (Kochia scoparia), lambsquarters (Chenopodium album), oilseed rape (Brassica napus), pigweed (Amaranthus retroflexus), chamomile (scentless chamomile, Matricaria inodora), Russian thistle (Salsola kali), speedwell (bird's-eye speedwell, Veronica persica), barley, spring (spring barley, Hordeum vulgare), wheat, spring (spring wheat, Triticum aestivum), buckwheat, wild (wild buckwheat, Polygonum convolvulus), mustard, wild (wild mustard, Sinapis arvensis), oat, wild (wild oat, Avena fatua), radish, wild (wild radish, Raphanus raphanistrum), […]), barley, winter (winter barley, Hordeum vulgare), and wheat, winter (winter wheat, Triticum aestivum) were planted into a silt loam soil and treated preemergence with test chemicals formulated in a non-phytotoxic solvent mixture which included a surfactant. At the same time, these species were planted in pots containing Redi-Earth® planting medium (Scotts Company, 14111 Scottslawn Road, Marysville, Ohio 43041) comprising spaghnum peat moss, vermiculite, wetting agent and starter nutrients and treated with postemergence applications of the test chemicals formulated in the same manner. Plants ranged in height from 2 to 18 cm (1- to 4-leaf stage). Treated plants and controls were maintained in a controlled growth environment for 7 to 21 days after which time all species were compared to controls and visually evaluated. Plant response ratings, summarized in Table D, are based on a scale of 0 to 100 where 0 is no effect and 100 is complete control. A dash (-) response means no test result.

For another assay, the system named is canarygrass. The experiment in a line: Test D pre-/postemergence herbicide test. It counts as in vivo, Phalaris minor. The following applies: for Plant response rating: Canarygrass, scale 0 to 100; for Plant response rating, Canarygrass: scale 0 to 100 (0 no effect, 100 complete control).
Text: as §1

For the next assay, the system named is barnyardgrass. The experiment in a line: Test F flood (paddy) test. It counts as in vivo, Echinochloa crus-galli. The following applies: 21 d, scale 0-100. The procedure, abridged: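 Greenhouse paddy, 30/27 °C day/night, 16-h light; sterilized Tama silt loam, 2.6% OM. Plants at 2.0–2.5 leaves; flood 3 cm, compound added directly to water. Visual score at 21 d, 0 = no effect, 100 = complete control, relative to untreated.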

Each structure is given as a SMILES string.

Regarding `O=C1NCC(c2ccc(F)c(F)c2)C1C(=O)Nc1ccccc1C(F)(F)F` (racemic) [Compound 6], the Plant response rating is listed as 0 with lambsquarters (Postemergence, 16 g ai/ha); 10 in the assay on lambsquarters (Postemergence, 31 g ai/ha); 20 in the assay with lambsquarters (Postemergence, 62 g ai/ha); 20 with lambsquarters (Postemergence, 125 g ai/ha); 30 in the assay with lambsquarters (Postemergence, 250 g ai/ha); 0 in the assay on lambsquarters (Preemergence, 125 g ai/ha). Also, the Plant response rating with lambsquarters (Preemergence, 250 g ai/ha) came out at 0; with canarygrass (Postemergence, 16 g ai/ha), 0; in the assay with canarygrass (Postemergence, 31 g ai/ha), 0; with canarygrass (Postemergence, 62 g ai/ha), 0; with canarygrass (Postemergence, 125 g ai/ha), 0; in the assay on canarygrass (Postemergence, 250 g ai/ha), 0. Also, the Plant response rating in the assay on canarygrass (Preemergence, 125 g ai/ha) was 20; with canarygrass (Preemergence, 250 g ai/ha), 20. Besides, the “Plant response rating, Lambsquarters” value in the assay with lambsquarters (Preemergence, 62 g ai/ha) came out at 0; with lambsquarters (Preemergence, 16 g ai/ha) it was 0; with lambsquarters (Preemergence, 31 g ai/ha) it was 0. The “Plant response rating, Canarygrass” value in the assay on canarygrass (Preemergence, 62 g ai/ha) is listed as 10; in the assay with canarygrass (Preemergence, 16 g ai/ha), 0; with canarygrass (Preemergence, 31 g ai/ha), 0.

Regarding `O=C1NCC(c2ccc(F)c(C(F)(F)F)c2)C1C(=O)Nc1cccc(F)c1F` (racemic) [Compound 77], the “Plant response rating, Lambsquarters” value in the assay with lambsquarters (Preemergence, 62 g ai/ha) turned out to be 85; in the assay on lambsquarters (Preemergence, 31 g ai/ha), 85. In addition, the Plant response rating with lambsquarters (Preemergence, 125 g ai/ha) is 90; with lambsquarters (Preemergence, 250 g ai/ha), 90; in the assay with canarygrass (Preemergence, 125 g ai/ha), 65; in the assay with canarygrass (Preemergence, 250 g ai/ha), 85. Also, the “Plant response rating, Canarygrass” value in the assay on canarygrass (Preemergence, 62 g ai/ha) came out at 45; in the assay with canarygrass (Preemergence, 31 g ai/ha), 25.

In the case of `O=C1NCC(c2ccc(F)c(F)c2)C1C(=O)Nc1cccc(F)c1F` (racemic) [Compound 101], the “Plant response rating, Barnyardgrass” value in the assay on barnyardgrass (64 g ai/ha) is recorded as 60; in the assay with barnyardgrass (125 g ai/ha) it was 85; with barnyardgrass (250 g ai/ha), 85; with barnyardgrass (500 g ai/ha) it was 90.

Take `O=C1NCC(c2cccc(C(F)F)c2)C1C(=O)Nc1ccccc1F` (racemic) [Compound 210]: the “Plant response rating, Barnyardgrass” value worked out at 75 in the assay with barnyardgrass (125 g ai/ha), 100 in the assay with barnyardgrass (250 g ai/ha) and 100 in the assay on barnyardgrass (500 g ai/ha).

In the case of `O=C1NCCC1C(=O)N(c1ccc(F)c(F)c1)c1ccccc1F` (stereo not drawn) [Compound 5, N-(3,4-difluorophenyl)-N-(2-fluorophenyl)-2-oxo-3-pyrrolidinecarboxamide], the “Plant response rating, Barnyardgrass” value with barnyardgrass (125 g ai/ha) came to 55; with barnyardgrass (250 g ai/ha), 65; in the assay with barnyardgrass (500 g ai/ha) it was 75; in the assay on barnyardgrass (1000 g ai/ha) it was 90; in the assay with barnyardgrass (2000 g ai/ha), 90.

`O=C1NCC(c2cc(F)c(F)cc2F)C1C(=O)Nc1cccc(F)c1F` (stereo not drawn) [Compound 50]: the Plant response rating is recorded as 5 in the assay with lambsquarters (Postemergence, 16 g ai/ha); 5 in the assay on lambsquarters (Postemergence, 31 g ai/ha); 5 in the assay with lambsquarters (Postemergence, 62 g ai/ha); 20 in the assay with lambsquarters (Postemergence, 125 g ai/ha); 0 in the assay with lambsquarters (Preemergence, 125 g ai/ha); 0 with canarygrass (Postemergence, 16 g ai/ha). Moreover, the Plant response rating with canarygrass (Postemergence, 31 g ai/ha) stood at 0; with canarygrass (Postemergence, 62 g ai/ha) it was 0; in the assay with canarygrass (Postemergence, 125 g ai/ha), 0; in the assay with canarygrass (Preemergence, 125 g ai/ha), 0. The “Plant response rating, Lambsquarters” value was determined as 0 in the assay on lambsquarters (Preemergence, 62 g ai/ha); 0 in the assay with lambsquarters (Preemergence, 16 g ai/ha); 0 with lambsquarters (Preemergence, 31 g ai/ha). Also, the “Plant response rating, Canarygrass” value with canarygrass (Preemergence, 62 g ai/ha) is given as 0; with canarygrass (Preemergence, 16 g ai/ha), 0; in the assay with canarygrass (Preemergence, 31 g ai/ha), 0.

Turning to `O=C1NCC(c2ccc(Cl)c(F)c2)C1C(=O)Nc1cccc(F)c1F` (stereo not drawn) [Compound 52], the Plant response rating in the assay on lambsquarters (Postemergence, 16 g ai/ha) is listed as 0; with lambsquarters (Postemergence, 31 g ai/ha), 0; in the assay with lambsquarters (Postemergence, 62 g ai/ha), 0; with lambsquarters (Postemergence, 125 g ai/ha), 30; with lambsquarters (Postemergence, 250 g ai/ha), 30; in the assay on lambsquarters (Preemergence, 125 g ai/ha), 20. The Plant response rating was 20 in the assay with lambsquarters (Preemergence, 250 g ai/ha); 0 in the assay on canarygrass (Postemergence, 16 g ai/ha); 0 in the assay on canarygrass (Postemergence, 31 g ai/ha); 0 in the assay with canarygrass (Postemergence, 62 g ai/ha); 0 in the assay with canarygrass (Postemergence, 125 g ai/ha); 0 in the assay with canarygrass (Postemergence, 250 g ai/ha). For the same molecule, the Plant response rating in the assay on canarygrass (Preemergence, 125 g ai/ha) is 0; in the assay with canarygrass (Preemergence, 250 g ai/ha), 0. Also, the “Plant response rating, Lambsquarters” value in the assay with lambsquarters (Preemergence, 62 g ai/ha) came out at 0; with lambsquarters (Preemergence, 16 g ai/ha), 0; in the assay on lambsquarters (Preemergence, 31 g ai/ha), 0. In addition, the “Plant response rating, Canarygrass” value in the assay on canarygrass (Preemergence, 62 g ai/ha) is on record as 0; in the assay on canarygrass (Preemergence, 16 g ai/ha) it was 0; in the assay on canarygrass (Preemergence, 31 g ai/ha), 0.

In the case of `O=C1NCC(c2ccc(C(F)(F)F)cc2)C1C(=O)Nc1ccccc1F` (stereo not drawn) [Compound 231], the Plant response rating in the assay on lambsquarters (Postemergence, 31 g ai/ha) is listed as 55; with lambsquarters (Postemergence, 62 g ai/ha) it was 50; with lambsquarters (Postemergence, 125 g ai/ha), 70; with lambsquarters (Postemergence, 250 g ai/ha), 75; in the assay on lambsquarters (Preemergence, 250 g ai/ha), 90; with canarygrass (Postemergence, 31 g ai/ha), 0. Besides, the Plant response rating in the assay with canarygrass (Postemergence, 62 g ai/ha) was found to be 0; in the assay on canarygrass (Postemergence, 125 g ai/ha), 0; in the assay on canarygrass (Postemergence, 250 g ai/ha), 0; in the assay with canarygrass (Preemergence, 250 g ai/ha) it was 35. Further, the “Plant response rating, Lambsquarters” value in the assay with lambsquarters (Preemergence, 62 g ai/ha) worked out at 80; in the assay on lambsquarters (Preemergence, 125 g ai/ha), 90; in the assay with lambsquarters (Preemergence, 31 g ai/ha), 45. Moreover, the “Plant response rating, Canarygrass” value in the assay on canarygrass (Preemergence, 62 g ai/ha) worked out at 15; in the assay with canarygrass (Preemergence, 125 g ai/ha), 20; in the assay on canarygrass (Preemergence, 31 g ai/ha), 0.

As to `CN1CC(c2ccc(F)c(F)c2)C(C(=O)Nc2cccc(F)c2F)C1=O` (stereo not drawn) [Compound 303], the “Plant response rating, Barnyardgrass” value in the assay with barnyardgrass (62 g ai/ha), with barnyardgrass (125 g ai/ha), with barnyardgrass (250 g ai/ha) and in the assay on barnyardgrass (500 g ai/ha) was 100 throughout.

These data come from US10294202B2, “Pyrrolidinones as herbicides” (FMC Corporation, priority 2013, dated 2019).
